Experimental data as given in patent publication US20080081781A1, “Methods and compositions for the treatment of metabolic syndrome” (priority 2004, published 2008).
Counter-ions that a name gives are not always drawn. Like-named read-outs stand apart in the source and are kept apart here.

How the values were obtained:
LDLR mRNA = experiment: Kinase inhibitors on berberine-induced LDLR mRNA in HepG2 cells (RT-PCR); type: cell-based, human; conditions: HepG2, inhibitor 1 hour before 7.5 μg berberine 8 hours; calphostin C 0.2 μM
Description: (§1) To explore the pathway responsible for the berberine-induced InsR gene transcription, different kinase inhibitors were used, including the MEK1-ERK inhibitor U0126, the p38 kinase inhibitor SB203580, the c-Jun N-terminal kinase inhibitor curcumin, the PI-3 kinase inhibitor wortmannin, and the PKC inhibitor calphostin C.
(§2) HepG2 cells were pretreated with each of the inhibitors 1 hour prior to treatment with 7.5 μg of berberine for 8 hours. Total RNA was then isolated and the relative amount of InsR and LDLR mRNA was measured by quantitative RT-PCR as described in Example XVII. It was determined that the activity of berberine on InsR gene transcription was most sensitive to the PKC inhibitor calphostin C.

InsR mRNA = experiment: Kinase inhibitors on berberine-induced InsR gene transcription in HepG2 cells (RT-PCR); type: cell-based, human; conditions: HepG2, inhibitor 1 hour before 7.5 μg berberine 8 hours; calphostin C 0.2 μM
Description: as §1, §2

[1] = Pharmacokinetics of 3H-berberine in rabbits, intravenous and intravenous drip
Description: 0.1 ml of blood was removed at various times and radiation emissions were measured.

[2] = Tissue distribution of 3H-berberine in mice; type: in vivo, mouse; conditions: tail vein 135 LBq/10 g, 5 minutes to 2 hours
Description: Tissue radiation emission was measured 5 minutes to 2 hours after administration with the distribution of the berberine concentrations from highest to lowest being: lung>liver>kidney>spleen>heart>intestine>stomach>brain.

[3] = Excretion of berberine in rats (urine, fecal matter, gall bladder secretions); type: in vivo, rat; conditions: rats, oral 3H-berberine, forty-eight hours
Description: In a final series of animal model studies, rats were orally administered 3H-berberine. Forty-eight hours after administration, excretions were tested for the presence of berberine. 2.7% of the oral dose was measured in the urine and 86% of the oral dose was measured in the fecal matter.
Rats received intravenous berberine (9.25 MBq/kg). Six days accumulation of rat urine and fecal secretions were measured for the presence of berberine. 73% of the intravenous dose of the berberine was found in the accumulated urine in both metabolized and unmetabolized forms. 10.9% of the intravenous dose was found in the fecal matter.
Three rats were given berberine (9.25 MBq/kg) intravenously. After 24 hours, gall bladder secretions were collected and evaluated for the presence of berberine. There was 10.1±0.9% (x±SD, n=3) of berberine in the gall bladder secretions.

[4] = Distill Water; amount of solute 10 mg
hyperlipidemia patients = conditions: three months
Description: After three months, fasting serum concentrations of cholesterol, triglycerides, HDL and LDL were measured using standard blood lipid tests.

InsR gene promoter = experiment: InsR promoter activity, pGL3-1.5kIRP transfected HepG2 cells; type: cell-based, human; conditions: pGL3-1.5kIRP transfected HepG2; calphostin C 0.2 μM, berberine 5 μg/ml
Description: The InsR promoter luciferase gene fusion plasmid (pGL3-1.5kIRP) was kindly provided by Dr. Araki E of the Graduate School of Medical Sciences, Kumamoto University, Honjo, Kumamoto, Japan.
After overnight incubation, the cells were treated with DMSO as the solvent control or with 0, 1, 2.5, 5, 7.5 and 10 μg/ml berberine for 8 h. Cell lysates were prepared and luciferase activities were measured using the Luciferase Reporter Gene Assay (Roche Applied Science). The experiment was repeated 4 times.

[5] = tested on: patients with type 2 diabetes; type: in vivo, human; conditions: patients with type 2 diabetes, Mean ± SE
Description: Ninety-seven hyperglycemic patients (54 males and 43 females) with fasting blood glucose>7 mmol/L and post-prandial blood glucose>11.1 mmol/L were enrolled in a study at the Nanjing First Hospital in Nanjing, China. The patients were asked to end any current treatments for hyperglycemia at least 2 weeks prior to commencement of the study.
Fifty of the patients (male/female, 27/23; age 57±8y) were randomly assigned to be given 0.5 gram twice a day (1g/day total) of berberine (Nanjing Second Pharmaceutics, Inc., Nanjing, China), orally for 2 months. Out of these 50 patients, 25 had hyperlipidemia, 9 had hypertension and 2 had cardiovascular disease. Twenty-six patients (male/female, 15/11; age 56±11 y) were given 1.5 grams of metformin (Double-Crane Pharmaceutical, Inc., Beijing, China) per day, orally for two months. Of these twenty-six patients, 11 had hyperlipidemia, and four had hypertension. The remaining twenty-one patients (male/female, 11/10, age 49±10 y) were given 4 mg per day of rosiglitazone (Glaxowelcome, UK), orally for two months. Of these 21 patients, ten had hyperlipidemia and four had hypertension. Metformin and rosiglitazone served as reference controls as they are standard treatments for type 2 diabetes.
Blood samples were taken prior to the commencement of therapy and after completion of the therapy.

rat model subjects = experiment: Combinatorial anti-hyperlipidemia efficacy of berberine and lovastatin in rats (Table 9); type: in vivo
[6] = tested on: high fat high cholesterol (HFHC) diet rats; experiment: Combination treatment with berberine and simvastatin in HFHC diet rats (Table 8); type: in vivo, rat; conditions: oral, after 25 days, daily dose berberine 100 mg/kg, simvastatin 25 mg/kg, combination 100 + 25, average ± standard error
Description: Rats were fed a high fat high cholesterol (HFHC) diet for 10 days, and then divided into groups of seven. The rats were then administered berberine or simvastatin, or a combination of berberine and simvastatin orally for 25 days. After 25 days, serum cholesterol, triglyceride and LDL-c levels were measured. […] The combination of simvastatin, and berberine lowered the cholesterol, triglyceride and LDL-c levels further than either alone.

LDLR promoter = LDLR promoter activity, pLDLR234Luc reporter in HepG2 cells; type: cell-based, human; conditions: pLDLR234Luc HepG2, LPDS or LPDS and cholesterol medium, 8 hour treatment
Description: HepG2 cells were transfected with the reporter construct pLDLR234Luc, which contains the SRE- I motif and the sterol-independent regulatory element that mediates the cytokine oncostatin M-induced transcription of the LDLR gene.

[7] = 0.5 g twice a day, all treated patients (n=63)
[8] = only participants neither on drugs nor special diets
[9] = After treatment (2 months), oral: berberine 1 g/day, metformin 1.5 g/day, rosiglitazone 4 mg/day
[10] = high fat diet rats treated for 15 days, berberine 80 mg/kg/day, lovastatin 10 mg/kg/day
[11] = high fat diet rats, Day 0 (untreated rats, baseline)

N#CC(=C(/N)Sc1ccccc1N)/C(C#N)=C(\N)Sc1ccccc1N [U0126]
effect of inhibitor on berberine-increased level of LDLR mRNA (LDLR mRNA): completely abolished | effect of inhibitor on the activity of berberine on InsR gene transcription (InsR mRNA): did not effect

3H-berberine
Vd ([1]; 5 rabbits, intravenously 25 MBq/kg): 20 ± 3 L/kg | Vd ([1]; four rabbits, intravenous drip 46.25 Mbq/kg): 22.1 ± 1.7 L/kg | distribution of concentrations in tissues, highest to lowest [2]: lung>liver>kidney>spleen>heart>intestine>stomach>brain | oral dose measured in the fecal matter [3]: 86% | oral dose measured in the urine [3]: 2.7%

COc1ccc2cc3[n+](cc2c1OC)CCc1cc2c(cc1-3)OCO2.O=S(=O)([O-])O [7. Hydrosulfate]
Amount of Solvent [4]: 1.5

CC(O)C(=O)[O-].COc1ccc2cc3[n+](cc2c1OC)CCc1cc2c(cc1-3)OCO2 [4. Lactate]
Amount of Solvent [4]: 6.0

CC(=O)[O-].COc1ccc2cc3[n+](cc2c1OC)CCc1cc2c(cc1-3)OCO2 [3. Acetate]
Amount of Solvent [4]: 9.0

COc1ccc2cc3[n+](cc2c1OC)CCc1cc2c(cc1-3)OCO2 [berberine hydrochloride]
lowering of serum LDL (hyperlipidemia patients; [7]): 20% | lowering of serum cholesterol (hyperlipidemia patients; [7]): 18% | lowering of serum triglycerides (hyperlipidemia patients; [7]): 28% | decrease of serum LDL (hyperlipidemia patients; [8]): 25% | decrease of serum cholesterol (hyperlipidemia patients; [8]): 29% | decrease of serum triglycerides (hyperlipidemia patients; [8]): 35%

Calphostin C
effect of inhibitor on berberine-increased level of LDLR mRNA (LDLR mRNA): did not change | effect of PKC inhibitor pre-treatment on berberine stimulation of InsR gene promoter (InsR gene promoter): diminished the ability of berberine to stimulate the InsR gene promoter | effect of inhibitor on the activity of berberine on InsR gene transcription (InsR mRNA): completely eliminated

COc1ccc2cc3[n+](cc2c1OC)CCc1cc2c(cc1-3)OCO2.O=C([O-])C(F)(F)F [16. Trifluoroacetate]
Amount of Solvent [4]: 7.5

COc1ccc2cc3[n+](cc2c1OC)CCc1cc2c(cc1-3)OCO2.CS(=O)(=O)[O-] [6. Methanesulfonate]
Amount of Solvent [4]: 1.5

COc1ccc2cc3[n+](cc2c1OC)CCc1cc2c(cc1-3)OCO2.O=C([O-])c1ccccc1 [13. Benzoate]
Amount of Solvent [4]: 7.0

CN(C)C(=N)N=C(N)N [metformin, reference compound]
HbA1c [5, 9]: 7.2 ± 0.3 % | Triglyceride [5, 9]: 1.6 ± 0.1 mmol/L | FBG (fasting blood glucose) ([5]; Before treatment (baseline)): 10.9 ± 0.5 mmol/L | HbA1c ([5]; Before treatment (baseline)): 9.4 ± 0.5% | Triglyceride ([5]; Before treatment (baseline)): 1.7 ± 0.2 mmol/L

CC[C@H](C)C(=O)O[C@H]1C[C@@H](C)C=C2C=C[C@H](C)[C@H](CC[C@@H]3C[C@@H](O)CC(=O)O3)[C@H]21 [lovastatin, reference compound]
Cholesterol Day 15 (rat model subjects; [10]): 2.7 mmol/L | LDL Day 15 (rat model subjects; [10]): 1.62 mmol/L | Cholesterol Day 0 (rat model subjects; [11]): 3.6 mmol/L | LDL Day 0 (rat model subjects; [11]): 2.15 mmol/L

COc1ccc2cc3[n+](cc2c1OC)CCc1cc2c(cc1-3)OCO2.COc1ccc2cc3[n+](cc2c1OC)CCc1cc2c(cc1-3)OCO2.O=S(=O)([O-])[O-] [8. Sulfate]
Amount of Solvent [4]: 0.5

COc1ccc2cc3[n+](cc2c1OC)CCc1cc2c(cc1-3)OCO2.Cc1ccc(S(=O)(=O)[O-])cc1 [15. Toluenesulfonate]
Amount of Solvent [4]: 11.0

CN(CCOc1ccc(CC2SC(=O)NC2=O)cc1)c1ccccn1 (stereo not drawn) [rosiglitazone, reference compound]
HbA1c [5, 9]: 6.8 ± 0.3 % | Triglyceride [5, 9]: 1.6 ± 0.1 mmol/L | FBG (fasting blood glucose) ([5]; Before treatment (baseline)): 9.1 ± 0.8 mmol/L | HbA1c ([5]; Before treatment (baseline)): 8.3 ± 0.4% | Triglyceride ([5]; Before treatment (baseline)): 1.9 ± 0.3 mmol/L

CCC(C)(C)C(=O)O[C@H]1C[C@@H](C)C=C2C=C[C@H](C)[C@H](CC[C@@H]3C[C@@H](O)CC(=O)O3)[C@H]21 [simvastatin, reference compound]
LDL-c [6]: 1.4 ± 0.1 mmol/L | Total Cholesterol [6]: 3.6 ± 0.4 mmol/L | Triglyceride [6]: 2.5 ± 0.3 mmol/L

B1: oncostatin M: cytokine oncostatin M that induces transcription of the LDLR gene (protein, UniProt P13725 26-221, looked up)
Oncostatin-M: AAIGSCSKEYRVLLGQLQKQTDLMQDTSRLLDPYIRIQGLDVPKLREHCRERPGAFPSEETLRGLGRRGFLQTLNATLGCVLHRLADLEQRLPKAQDLERSGLNIEDLEKLQMARPNILGLRNNIYCMAQLLDNSDTAEPTKAGRGASQPPTPTPASDAFQRKLEGCRFLHGYHRFMHSVGRVFSKWGESPNRSRR
LDLR promoter activity (LDLR promoter): strongly elevated
